{"source": "patent US12377104B1", "about": "“Methods for treating a fatty liver disease” (Madrigal Pharmaceuticals, Inc., priority 2024, dated 2025)", "tested_on": "adults with biopsy-confirmed NASH", "assay": "MAESTRO-NASH: adverse events, serious adverse events, malignancies", "key": {"[1]": {"conditions": "80 mg (n = 322), safety population"}}, "source_text": "Safety end points included adverse events, biochemical assessments, and clinical assessments. Selected serious adverse events (including deaths, cardiovascular events, and potential drug-induced liver injury) were adjudicated by independent, external event-adjudication committees whose members were unaware of the trial-group assignments.", "data": [{"smiles": "CC(C)c1cc(Oc2c(Cl)cc(-n3nc(C#N)c(=O)[nH]c3=O)cc2Cl)n[nH]c1=O", "note": "[Resmetirom, 2-(3,5-dichloro-4-((5-isopropyl-6-oxo-1,6-dihydropyridazin-3-yl)oxy)phenyl)-3,5-dioxo-2,3,4,5-tetrahydro-1,2,4-triazine-6-carbonitrile]", "values": [{"measurement": "Adverse event leading to trial discontinuation before wk 52, number of patients", "setting": "80 mg", "result": 6}, {"measurement": "Adverse event leading to trial discontinuation during entire treatment period, number of patients", "setting": "80 mg", "result": 9}, {"measurement": "Adverse event leading to trial discontinuation during entire treatment period, percent of patients", "setting": "80 mg", "result": "(2.8) percent"}, {"measurement": "Arthralgia, number of patients", "setting": "80 mg", "result": 48}, {"measurement": "Arthralgia, percent of patients", "setting": "80 mg", "result": "(14.9) percent"}, {"measurement": "Back pain, number of patients", "setting": "80 mg", "result": 35}, {"measurement": "Back pain, percent of patients", "setting": "80 mg", "result": "(10.9) percent"}, {"measurement": "Cancer reported, patients", "setting": "80 mg", "result": 1.2, "unit": "%"}, {"measurement": "Covid-19, number of patients", "setting": "80 mg", "result": 69}, {"measurement": "Covid-19, percent of patients", "setting": "80 mg", "result": "(21.4) percent"}, {"measurement": "Diarrhea, number of patients", "setting": "80 mg", "result": 87}, {"measurement": "Diarrhea, percent of patients", "setting": "80 mg", "result": "(27.0) percent"}, {"measurement": "Fatal adverse event, number of patients", "setting": "80 mg", "result": 1}, {"measurement": "Fatal adverse event, percent of patients", "setting": "80 mg", "result": "(0.3) percent"}, {"measurement": "Fatigue, number of patients", "setting": "80 mg", "result": 33}, {"measurement": "Fatigue, percent of patients", "setting": "80 mg", "result": "(10.2) percent"}, {"measurement": "Grade 1: mild, number of patients", "setting": "80 mg", "result": 73}, {"measurement": "Grade 1: mild, percent of patients", "setting": "80 mg", "result": "(22.7) percent"}, {"measurement": "Grade 2: moderate, number of patients", "setting": "80 mg", "result": 180}, {"measurement": "Grade 2: moderate, percent of patients", "setting": "80 mg", "result": "(55.9) percent"}, {"measurement": "Grade 3 or higher: severe, number of patients", "setting": "80 mg", "result": 43}, {"measurement": "Grade 3 or higher: severe, percent of patients", "setting": "80 mg", "result": "(13.4) percent"}, {"measurement": "Major adverse cardiovascular event, number of patients", "setting": "80 mg", "result": 1}, {"measurement": "Major adverse cardiovascular event, percent of patients", "setting": "80 mg", "result": "(0.3) percent"}, {"measurement": "Nausea, number of patients", "setting": "80 mg", "result": 71}, {"measurement": "Nausea, percent of patients", "setting": "80 mg", "result": "(22.0) percent"}, {"measurement": "Other cardiovascular event, number of patients", "setting": "80 mg", "result": 0}, {"measurement": "Pruritus, number of patients", "setting": "80 mg", "result": 26}, {"measurement": "Pruritus, percent of patients", "setting": "80 mg", "result": "(8.1) percent"}, {"measurement": "Urinary tract infection, number of patients", "setting": "80 mg", "result": 33}, {"measurement": "Urinary tract infection, percent of patients", "setting": "80 mg", "result": "(10.2) percent"}, {"measurement": "≥1 Adverse event attributed to resmetirom, number of patients", "setting": "80 mg", "result": 124}, {"measurement": "≥1 Adverse event attributed to resmetirom, percent of patients", "setting": "80 mg", "result": "(38.5) percent"}, {"measurement": "≥1 Adverse event, number of patients", "setting": "80 mg", "result": 296}, {"measurement": "≥1 Adverse event, percent of patients", "setting": "80 mg", "result": "(91.9) percent"}, {"measurement": "≥1 Serious adverse event attributed to resmetirom, number of patients", "setting": "80 mg", "result": 2}, {"measurement": "≥1 Serious adverse event attributed to resmetirom, percent of patients", "setting": "80 mg", "result": "(0.6) percent"}, {"measurement": "≥1 Serious adverse event, number of patients", "setting": "80 mg", "result": 35}, {"measurement": "Malignancy: Basal cell carcinoma", "setting": "80 mg (N = 322)", "result": "2 (0.6) n (%)"}, {"measurement": "Malignancy: Breast carcinoma", "setting": "80 mg (N = 322)", "result": "1 (0.3) n (%)"}, {"measurement": "Malignancy: Malignant melanoma", "setting": "80 mg (N = 322)", "result": "0 n (%)"}, {"measurement": "Malignancy: Skin cancer (squamous cell)", "setting": "80 mg (N = 322)", "result": "1 (0.3) n (%)"}, {"measurement": "Patients with any malignancy", "setting": "80 mg (N = 322)", "result": "4 (1.2) n (%)"}, {"measurement": "Patients with at least one TE-SAEs", "setting": "80 mg (N = 322)", "result": "35 (10.9) n (%)"}, {"measurement": "SAE: Acute Gallstone-related disorders", "setting": "80 mg (N = 322)", "result": "3 (0.9) n (%)"}, {"measurement": "SAE: COVID-19", "setting": "80 mg (N = 322)", "result": "1 (0.3) n (%)"}, {"measurement": "SAE: COVID-19 pneumonia", "setting": "80 mg (N = 322)", "result": "2 (0.6) n (%)"}, {"measurement": "SAE: Cardiac disorders", "setting": "80 mg (N = 322)", "result": "3 (0.9) n (%)"}, {"measurement": "SAE: Gastrointestinal disorders", "setting": "80 mg (N = 322)", "result": "3 (0.9) n (%)"}, {"measurement": "SAE: General disorders and administration site conditions", "setting": "80 mg (N = 322)", "result": "2 (0.6) n (%)"}, {"measurement": "SAE: Infections and infestations", "setting": "80 mg (N = 322)", "result": "12 (3.7) n (%)"}, {"measurement": "SAE: Injury, poisoning and procedural complications", "setting": "80 mg (N = 322)", "result": "3 (0.9) n (%)"}, {"measurement": "SAE: Musculoskeletal and connective tissue disorders", "setting": "80 mg (N = 322)", "result": "7 (2.2) n (%)"}, {"measurement": "SAE: Nervous system disorders", "setting": "80 mg (N = 322)", "result": "3 (0.9) n (%)"}, {"measurement": "SAE: Post procedural haemorrhage", "setting": "80 mg (N = 322)", "result": "1 (0.3) n (%)"}, {"measurement": "SAE: Respiratory, thoracic and mediastinal disorders", "setting": "80 mg (N = 322)", "result": "3 (0.9) n (%)"}, {"measurement": "Adverse event: Abdominal distension", "setting": "[1]", "result": "14 (4.3) no. (%)"}, {"measurement": "Adverse event: Abdominal pain", "setting": "[1]", "result": "23 (7.1) no. (%)"}, {"measurement": "Adverse event: Abdominal pain upper", "setting": "[1]", "result": "23 (7.1) no. (%)"}, {"measurement": "Adverse event: Constipation", "setting": "[1]", "result": "21 (6.5) no. (%)"}, {"measurement": "Adverse event: Cough", "setting": "[1]", "result": "14 (4.3) no. (%)"}, {"measurement": "Adverse event: Decreased appetite", "setting": "[1]", "result": "5 (1.6) no. (%)"}, {"measurement": "Adverse event: Dizziness", "setting": "[1]", "result": "20 (6.2) no. (%)"}, {"measurement": "Adverse event: Gastrooesophageal reflux disease", "setting": "[1]", "result": "16 (5.0) no. (%)"}, {"measurement": "Adverse event: Headache", "setting": "[1]", "result": "30 (9.3) no. (%)"}, {"measurement": "Adverse event: Hypertension", "setting": "[1]", "result": "16 (5.0) no. (%)"}, {"measurement": "Adverse event: Muscle spasms", "setting": "[1]", "result": "14 (4.3) no. (%)"}, {"measurement": "Adverse event: Nasopharyngitis", "setting": "[1]", "result": "14 (4.3) no. (%)"}, {"measurement": "Adverse event: Pain in extremity", "setting": "[1]", "result": "12 (3.7) no. (%)"}, {"measurement": "Adverse event: Procedural pain", "setting": "[1]", "result": "16 (5.0) no. (%)"}, {"measurement": "Adverse event: Rash", "setting": "[1]", "result": "12 (3.7) no. (%)"}, {"measurement": "Adverse event: Sinusitis", "setting": "[1]", "result": "10 (3.1) no. (%)"}, {"measurement": "Adverse event: Type 2 diabetes", "setting": "[1]", "result": "24 (7.5) no. (%)"}, {"measurement": "Adverse event: Upper respiratory tract infection", "setting": "[1]", "result": "23 (7.1) no. (%)"}, {"measurement": "Adverse event: Vomiting", "setting": "[1]", "result": "28 (8.7) no. (%)"}, {"measurement": "Adverse event leading to trial discontinuation before wk 52, number of patients", "setting": "100 mg", "result": 22}]}]}
